Legend:
Type in all cases: functional, cell-based
[1] = Cytotoxicity against human SGC7901 cells assessed as reduction in cell viability; conditions: SGC-7901
NCI-H460 = experiment: cells; conditions: Homo sapiens
Description: Cytotoxicity against human NCI-H460 cells assessed as reduction in cell viability

SW1990 = experiment: Cytotoxicity against human SW1990 cells assessed as reduction in cell viability
U-251 = experiment: Cytotoxicity against human U251 cells assessed as reduction in cell viability
HeLa = experiment: Cytotoxicity against human HeLa cells assessed as reduction in cell viability
HepG2 = experiment: Cytotoxicity against human HepG2 cells assessed as reduction in cell viability
DU-145 = experiment: Cytotoxicity against human DU145 cells assessed as reduction in cell viability
SW480 = experiment: Cytotoxicity against human SW480 cells assessed as reduction in cell viability
MCF7 = experiment: Cytotoxicity against human MCF7 cells assessed as reduction in cell viability

Structure (SMILES)	IC50 [1]	IC50 (NCI-H460)	IC50 (SW1990)	IC50 (U-251)	IC50 (HeLa)	IC50 (HepG2)	IC50 (DU-145)	IC50 (SW480)	IC50 (MCF7)
CO[C@H]1CC(=O)[C@@H]2C[C@@]34SS[C@]5(C[C@@H]6C(=O)C=C[C@H](O)[C@H]6N5C3=O)C(=O)N4[C@@H]2[C@H]1O	2.6 µM	4.9 µM	6 µM	5.2 µM	6.8 µM	6.4 µM	4.2 µM	2 µM	5.5 µM
O=C1C=C[C@H](O)[C@@H]2[C@@H]1C[C@@]13SS[C@]4(C[C@H]5C(=O)CC[C@H](O)[C@H]5N4C1=O)C(=O)N23	2.4 µM	4 µM	6.4 µM	3.5 µM	5.3 µM	5.5 µM	3.6 µM	1.2 µM	6.1 µM
O=C1C[C@H](O)[C@H](O)[C@@H]2[C@H]1C[C@@]13SS[C@]4(C[C@H]5[C@@H]([C@@H](O)C=C[C@@H]5O)N4C1=O)C(=O)N23	> 20 µM	> 20 µM	> 20 µM	> 20 µM	> 20 µM	> 20 µM	> 20 µM	> 20 µM	> 20 µM
CO[C@H]1CC(=O)[C@@H]2C[C@@]34SS[C@]5(C[C@H]6C(=O)C[C@H](O)[C@H](O)[C@H]6N5C3=O)C(=O)N4[C@@H]2[C@H]1O	> 20 µM	> 20 µM	> 20 µM	> 20 µM	> 20 µM	> 20 µM	> 20 µM	> 20 µM	> 20 µM
O=C1N2[C@H]3[C@H](C[C@]24SS[C@]12C[C@H]1[C@@H]([C@@H](O)C=C[C@@H]1O)N2C4=O)[C@@H](O)C=C[C@@H]3O	3.3 µM	12.4 µM	2.1 µM	6.1 µM	4.3 µM	5.6 µM	11.2 µM		9 µM
O=C1C=C[C@H](O)[C@@H]2[C@@H]1C[C@@]13SS[C@]4(C[C@H]5[C@@H]([C@@H](O)C=C[C@@H]5O)N4C1=O)C(=O)N23	8 µM	0.89 µM	5.9 µM	5.3 µM	6.9 µM	2.9 µM	1.7 µM		3 µM
COc1cccc2c1C(=O)c1c(O)c3c(c(O)c1C2=O)C[C@@](O)(C(=O)CO)C[C@@H]3O[C@H]1C[C@H](N)[C@H](O)[C@H](C)O1 [DOXORUBICIN]	2.9 µM								
Nc1ccn([C@@H]2O[C@H](CO)[C@@H](O)C2(F)F)c(=O)n1 [GEMCITABINE]			2.2 µM						
CC(=O)O[C@H]1C(=O)[C@@]2(C)[C@H]([C@H](OC(=O)c3ccccc3)[C@]3(O)C[C@H](OC(=O)[C@H](O)[C@@H](NC(=O)c4ccccc4)c4ccccc4)C(C)=C1C3(C)C)[C@]1(OC(C)=O)CO[C@@H]1C[C@@H]2O [PACLITAXEL]					5 µM		1.5 µM		1.8 µM
